Results: the NIST ThermoML archive (doi:10.1016/j.jct.2012.12.001)
Values joined by “and” are separate entries in the source; they are usually repeats but may differ in a detail not shown here. Identical values can stand only once.

Test: heat capacity at constant pressure per volume; xn = mol fraction of the nth substance listed
Conditions: 101 kPa, Liquid, DSC, x2 = 0.695

CCCCCCCCCCCCCCCCC [heptadecane] + N#Cc1ccccc1
Conditions | heat capacity
298.05 K | 1856100 J/K/m3
298.14 K | 1849900 J/K/m3
298.24 K | 1857600 J/K/m3
298.34 K | 1869500 J/K/m3
298.44 K | 1867300 J/K/m3 and 1868100 J/K/m3
298.54 K | 1868700 J/K/m3
298.63 K | 1857900 J/K/m3
298.73 K | 1860800 J/K/m3
298.83 K | 1865800 J/K/m3
298.93 K | 1874400 J/K/m3
299.02 K | 1881300 J/K/m3
299.12 K | 1876400 J/K/m3
299.22 K | 1870300 J/K/m3
299.32 K | 1856400 J/K/m3 and 1858200 J/K/m3
299.42 K | 1872800 J/K/m3
299.52 K | 1876300 J/K/m3
299.61 K | 1873800 J/K/m3
299.71 K | 1875400 J/K/m3
299.81 K | 1870400 J/K/m3
299.91 K | 1865300 J/K/m3
300 K | 1870300 J/K/m3
300.1 K | 1879700 J/K/m3
300.2 K | 1876100 J/K/m3
300.3 K | 1884400 J/K/m3
300.4 K | 1880100 J/K/m3
300.49 K | 1877500 J/K/m3
300.59 K | 1873500 J/K/m3
300.69 K | 1871300 J/K/m3
300.79 K | 1885700 J/K/m3 and 1882900 J/K/m3
300.89 K | 1883300 J/K/m3
300.98 K | 1885200 J/K/m3
301.08 K | 1880800 J/K/m3
301.18 K | 1881200 J/K/m3
301.28 K | 1861100 J/K/m3
301.37 K | 1877300 J/K/m3
301.47 K | 1892900 J/K/m3
301.57 K | 1896800 J/K/m3
301.67 K | 1885900 J/K/m3 and 1887800 J/K/m3
301.77 K | 1883300 J/K/m3
301.87 K | 1884700 J/K/m3
301.96 K | 1888400 J/K/m3
302.06 K | 1899800 J/K/m3
302.16 K | 1898500 J/K/m3
302.26 K | 1888500 J/K/m3
302.35 K | 1894400 J/K/m3
302.45 K | 1890300 J/K/m3
302.55 K | 1891200 J/K/m3
302.65 K | 1899800 J/K/m3 and 1900100 J/K/m3
302.75 K | 1891400 J/K/m3
302.85 K | 1889600 J/K/m3
302.95 K | 1885100 J/K/m3
303.15 K | 1906400 J/K/m3
303.35 K | 1896200 J/K/m3
303.45 K | 1894500 J/K/m3
303.55 K | 1902400 J/K/m3
303.65 K | 1898100 J/K/m3
303.75 K | 1898100 J/K/m3
303.85 K | 1893900 J/K/m3
304.05 K | 1908600 J/K/m3
304.15 K | 1904800 J/K/m3
304.25 K | 1897700 J/K/m3 and 1899000 J/K/m3
304.35 K | 1888500 J/K/m3 and 1889600 J/K/m3
304.45 K | 1900600 J/K/m3
304.55 K | 1901500 J/K/m3
304.65 K | 1903900 J/K/m3
304.75 K | 1894400 J/K/m3
304.85 K | 1881800 J/K/m3
304.95 K | 1915800 J/K/m3
305.05 K | 1912200 J/K/m3
305.15 K | 1901900 J/K/m3
305.25 K | 1924700 J/K/m3
305.35 K | 1907800 J/K/m3
305.45 K | 1925500 J/K/m3
305.55 K | 1943100 J/K/m3
305.65 K | 1963900 J/K/m3
305.75 K | 1942400 J/K/m3
305.85 K | 1924200 J/K/m3
305.95 K | 1983400 J/K/m3
306.05 K | 1910400 J/K/m3
306.15 K | 2011200 J/K/m3
306.25 K | 1898300 J/K/m3
306.35 K | 2003200 J/K/m3
306.45 K | 1935800 J/K/m3
306.55 K | 2021100 J/K/m3
306.65 K | 1945600 J/K/m3
306.75 K | 2006800 J/K/m3
306.85 K | 1978000 J/K/m3
307.05 K | 2038400 J/K/m3
307.15 K | 2126900 J/K/m3
307.25 K | 1846500 J/K/m3
307.35 K | 1804900 J/K/m3
307.45 K | 1791700 J/K/m3
307.55 K | 1787300 J/K/m3
307.65 K | 1779800 J/K/m3
307.75 K | 1775700 J/K/m3
307.85 K | 1767300 J/K/m3
307.95 K | 1764000 J/K/m3
308.05 K | 1758800 J/K/m3
308.15 K | 1759200 J/K/m3
308.23 K | 1750200 J/K/m3
308.35 K | 1756500 J/K/m3
308.45 K | 1756400 J/K/m3
308.55 K | 1753500 J/K/m3
308.65 K | 1748300 J/K/m3
308.75 K | 1746500 J/K/m3
308.85 K | 1745200 J/K/m3
308.95 K | 1748100 J/K/m3
309.05 K | 1747000 J/K/m3
309.14 K | 1747900 J/K/m3
309.25 K | 1743700 J/K/m3
309.35 K | 1742200 J/K/m3
309.45 K | 1738100 J/K/m3
309.55 K | 1735200 J/K/m3
309.65 K | 1738100 J/K/m3
309.75 K | 1736500 J/K/m3
309.85 K | 1737600 J/K/m3
309.95 K | 1740400 J/K/m3
310.05 K | 1736900 J/K/m3
310.15 K | 1731900 J/K/m3
310.25 K | 1735000 J/K/m3
310.35 K | 1732200 J/K/m3
310.45 K | 1727800 J/K/m3
310.55 K | 1733700 J/K/m3
310.65 K | 1733500 J/K/m3
310.75 K | 1728600 J/K/m3
310.85 K | 1733600 J/K/m3
310.95 K | 1730900 J/K/m3
311 K | 1732600 J/K/m3
311.1 K | 1732200 J/K/m3
311.2 K | 1728000 J/K/m3
311.3 K | 1725400 J/K/m3
311.4 K | 1724600 J/K/m3
311.5 K | 1725800 J/K/m3
311.6 K | 1729500 J/K/m3
311.7 K | 1732300 J/K/m3
311.8 K | 1728700 J/K/m3
311.9 K | 1728100 J/K/m3
312 K | 1725500 J/K/m3
312.1 K | 1723400 J/K/m3
312.2 K | 1722200 J/K/m3
312.3 K | 1721300 J/K/m3
312.4 K | 1724000 J/K/m3
312.5 K | 1727600 J/K/m3
312.6 K | 1725700 J/K/m3
312.7 K | 1727300 J/K/m3
312.8 K | 1722600 J/K/m3
312.9 K | 1722100 J/K/m3
313 K | 1720300 J/K/m3
313.1 K | 1719600 J/K/m3
313.2 K | 1723400 J/K/m3
313.3 K | 1724400 J/K/m3
313.4 K | 1725500 J/K/m3
313.5 K | 1720500 J/K/m3
313.6 K | 1717000 J/K/m3
313.7 K | 1718300 J/K/m3
313.8 K | 1719300 J/K/m3
313.9 K | 1720600 J/K/m3
314 K | 1725600 J/K/m3
314.1 K | 1722200 J/K/m3
314.2 K | 1723200 J/K/m3
314.3 K | 1718000 J/K/m3
314.4 K | 1717600 J/K/m3
314.5 K | 1721100 J/K/m3
314.6 K | 1727600 J/K/m3
314.7 K | 1722500 J/K/m3
314.8 K | 1716700 J/K/m3
314.9 K | 1717900 J/K/m3
315 K | 1715800 J/K/m3
315.1 K | 1719700 J/K/m3
315.2 K | 1722400 J/K/m3
315.3 K | 1721800 J/K/m3
315.4 K | 1717200 J/K/m3
315.5 K | 1714900 J/K/m3
315.6 K | 1718500 J/K/m3
315.7 K | 1724700 J/K/m3
315.8 K | 1719600 J/K/m3
315.9 K | 1715500 J/K/m3
316 K | 1715800 J/K/m3
316.1 K | 1715600 J/K/m3
316.2 K | 1721400 J/K/m3
316.3 K | 1718600 J/K/m3
316.4 K | 1718400 J/K/m3
316.5 K | 1717700 J/K/m3
316.6 K | 1724000 J/K/m3
316.7 K | 1724400 J/K/m3
316.8 K | 1719200 J/K/m3
317.16 K | 1722200 J/K/m3
317.2 K | 1722100 J/K/m3
317.31 K | 1721500 J/K/m3
317.4 K | 1721700 J/K/m3
317.5 K | 1722100 J/K/m3
317.6 K | 1721900 J/K/m3
317.7 K | 1721900 J/K/m3
317.8 K | 1721800 J/K/m3
317.9 K | 1721500 J/K/m3
318 K | 1721300 J/K/m3
318.1 K | 1721300 J/K/m3
318.2 K | 1721200 J/K/m3
318.3 K | 1721100 J/K/m3
318.41 K | 1721000 J/K/m3
318.5 K | 1721100 J/K/m3
318.6 K | 1721300 J/K/m3
318.7 K | 1721400 J/K/m3
318.8 K | 1721400 J/K/m3
318.9 K | 1721100 J/K/m3
